{
  "source": "patent US20240057598A1",
  "about": "“USE OF 2-AMINO-3-METHYLHEXANOIC ACID AS PLANT IMMUNITY INDUCER” (NANJING AGRICULTURAL UNIVERSITY, priority 2020, published 2024)",
  "tested_on": "wheat",
  "assay": "Induced resistance of wheat to high temperature stress",
  "format": "in vivo",
  "details": "for Dry weight of overground part / Fresh weight of overground part / Heat injury index: 45° C. 9 h, 7 days recovery",
  "procedure": "[…] A blank control was additionally set, and 0.02% Tween 20 was added as a surfactant. 4 groups of repetitions were set for each concentration, and a normal temperature blank control was set at the same time. Ryegrass seeds were weighed according to 0.8 g per pot, sowed in a pot with a diameter of 8.5 cm, and planted in a greenhouse at a temperature of 25° C., a humidity of 60%-70%, and a light intensity of 200 μmolm^−2s^−1 (12 h light/12 h dark). On the 8th day of the seedling stage, the ryegrass was sprayed with the 2-amino-3-methylhexanoic acid solutions on the leaves twice in 24 h. 24 h after the second treatment, the plants were transferred to a light incubator at a temperature of 45° C. for conducting high temperature stress treatment for 12 h, and then the plants were taken out and transferred to a greenhouse at a temperature of 25° C. for 7 days of recovery. The injured conditions of the plants were observed and counted, and the heat injury grade was calculated. […] After the counting, the fresh weight of the aboveground part of the plant was weighed, and then the aboveground part was baked in an 85° C. oven for 48 h to determine the dry weight.\nWheat seeds were weighed according to 1.5 g per pot, and planted by a method and under conditions the same as those of ryegrass. When the wheat grew for two weeks in the seedling stage, the experiment was conducted. High temperature stress was conducted for 9 h, and the treatment method and subsequent statistical indexes were the same as those of the ryegrass mentioned above.",
  "data": [
    {"smiles": "CCCC(C)C(N)C(=O)O", "note": "(stereo not drawn) [2-amino-3-methylhexanoic acid]", "values": [
      {"measurement": "Dry weight of overground part", "setting": "10 nM", "result": "0.72 ± 0.04", "unit": "bc g"},
      {"measurement": "Fresh weight of overground part", "setting": "10 nM", "result": "1.76 ± 0.13", "unit": "c g"},
      {"measurement": "Heat injury index", "setting": "10 nM", "result": 85, "unit": "%"},
      {"measurement": "Dry weight of overground part", "setting": "100 nM", "result": "0.75 ± 0.04", "unit": "c g"},
      {"measurement": "Fresh weight of overground part", "setting": "100 nM", "result": "1.87 ± 0.12", "unit": "c g"},
      {"measurement": "Heat injury index", "setting": "100 nM", "result": 75, "unit": "%"},
      {"measurement": "Dry weight of overground part", "setting": "1,000 nM", "result": "0.78 ± 0.05", "unit": "bc g"},
      {"measurement": "Fresh weight of overground part", "setting": "1,000 nM", "result": "2.11 ± 0.30", "unit": "c g"},
      {"measurement": "Heat injury index", "setting": "1,000 nM", "result": 65, "unit": "%"},
      {"measurement": "Decrease of heat injury index", "setting": "10,000 nM", "result": 40, "unit": "%"},
      {"measurement": "Dry weight of aboveground part higher than untreated control group", "setting": "10,000 nM", "result": 31.94, "unit": "%"},
      {"measurement": "Fresh weight of aboveground part higher than untreated control group", "setting": "10,000 nM", "result": 102.84, "unit": "%"},
      {"measurement": "Dry weight of overground part", "setting": "10,000 nM", "result": "0.95 ± 0.04", "unit": "ab g"},
      {"measurement": "Fresh weight of overground part", "setting": "10,000 nM", "result": "3.57 ± 0.50", "unit": "b g"},
      {"measurement": "Heat injury index", "setting": "10,000 nM", "result": 40, "unit": "%"}
    ]}
  ]
}
